# Columns and labels:
# Assay type in all cases: cell-based, rat
# LTC-14 cells [1] = test: Western blotting of α-SMA and FN1 proteins in TGF-β-stimulated LTC-14 cells; settings: TGF-β 5 ng/mL, Eruberin A 0.5-20 μg/mL, 24 hours, serum-free medium, FIG. 2
# Experimental: (§1) LTC-14 cells were cultured at 37° C. under a humidified condition of 95% air and 5% CO2 in Iscove's Modified Dulbecco's Medium (IMDM) supplemented with 10% fetal bovine serum (FBS). Cells used in all the experiment were among passages 9 to 25. LTC-14 cells were seeded at a density of 1×10^5/well in a 12-well plate, and incubated with recombinant TGF-β at 5 ng/mL and Eruberin A at 0, 0.5, 1, 5, 10 and 20 μg/mL in serum-free IMDM for 24 hours. Cells were then harvested for mRNA and protein extraction or subjected to Sirius Red/Fast Green staining or immunofluorescent staining.
# (§2) Cytoplasmic and nuclear protein fractions of the LTC-14 cells were extracted using specific lysis buffers containing protease inhibitors. Cell lysates were loaded and separated by SDS-polyacrylamide gel electrophoresis. After wet electroblotting, proteins were transferred onto PVDF membranes (Bio-Rad), blocked with 5% non-fat milk, probed with antibodies and visualized by utilization of an ECL kit (GE Healthcare).
# LTC-14 cells [2] = test: Real-time quantitative PCR of fibrotic mediator mRNA in TGF-β-stimulated LTC-14 cells; settings: TGF-β 5 ng/mL, 24 hours
# Experimental: as §1
# mRNA samples from LTC-14 cells were extracted using Trizol reagent and subjected to a reverse transcription for cDNA synthesis. The synthesized cDNA was applied to amplifications with rat-specific primers for Tgf-β, Acta2, Col I-α1 and Fn1 in the ABI ViiA 7 real-time PCR system (Applied Biosystems) using 2×SYBR Green PCR Master Mix (Applied Biosystems). The Ct value of gene of interest was normalized to the endogenous reference Gapdh and presented as 2^−ΔΔCt using the comparative Ct method.
# NF-κB = test: Western blotting of nuclear translocation of NF-κB in LTC-14 cells; settings: compared to the TGF-β-treated control, FIG. 5
# Experimental: as §1, §2
# LTC-14 cells [3] = test: MTT cell proliferation assay; settings: Eruberin A in the range of 0 to 20 μg/mL; results not shown
# LTC-14 cells [4] = test: Sirius Red/Fast Green collagen staining of LTC-14 cells; settings: TGF-β 5 ng/mL, Eruberin A 10 μg/mL, p<0.05 vs TGF-β alone, FIG. 3
# Experimental: as §1
# Amounts of collagen and non-collagenous proteins in LTC-14 cells were measured using the Sirius Red/Fast Green collagen staining kit (Chondrex Inc.) according to the manufacturer's instruction.
# LTC-14 cells [5] = test: Immunofluorescent staining of α-SMA in TGF-β-stimulated LTC-14 cells; settings: TGF-β 5 ng/mL, FIG. 1
# Experimental: as §1
# For immunofluorescent staining of α-SMA, LTC-14 cells were seeded at a density of 1×10^5 onto the poly-L-lysine-coated cover slips in a 24-well plate, incubated with TGF-β at 5 ng/mL and Eruberin A at 0, 0.5, 1, 5, 10 and 20 μg/mL in serum-free IMDM for 24 hours. Cells were then fixed, blocked with 3% bovine serum albumin (BSA), probed with antibodies and mounted with fluorescence mounting medium containing 4′,6-diamidino-2-phenylindole (DAPI). Images were captured using the Nikon microscope and analyzed by the SPOT advanced software.
# [6] = Eruberin A 0.5-20 μg/mL, FIG. 4
smiles,measurement,setting,value
COc1ccc(C2C[C@@H]3OC4C(Oc5c(C)c(O)c(C)c(c53)O2)OC(CO)C(O)C4O)cc1 (stereo partly drawn) [Eruberin A],TGF-β-provoked elevation of FN1 protein,LTC-14 cells [1],effectively attenuated
same,TGF-β-provoked elevation of α-SMA protein,LTC-14 cells [1],effectively attenuated
same,IC50,"LTC-14 cells [2]; Rattus norvegicus, read-out: IC50 based on suppressive effects on the mRNA expression of α-SMA",~10 µg/mL
same,TGF-β-elevated mRNA expression level of Acta2,LTC-14 cells [2]; [6],significantly and dose-dependently suppressed
same,TGF-β-elevated mRNA expression level of Col I-α1,LTC-14 cells [2]; [6],significantly and dose-dependently suppressed
same,TGF-β-elevated mRNA expression level of Fn1,LTC-14 cells [2]; [6],significantly and dose-dependently suppressed
same,TGF-β-elevated mRNA expression level of Tgf-,LTC-14 cells [2]; [6],significantly and dose-dependently suppressed
same,nuclear translocation of NF-κB,NF-κB,significantly decreased
same,cytotoxicity (MTT cell proliferation assay),LTC-14 cells [3],no notable cytotoxicity
same,production of collagen (ratio of Sirius Red-stained collagenous to Fast Green-stained non-collagenous proteins),LTC-14 cells [4],notably suppressed
same,TGF-β-stimulated α-SMA expression (immunofluorescence),LTC-14 cells [5]; 24 hours,significantly attenuated
same,immunoreactivities of α-SMA,LTC-14 cells [5]; Eruberin A at 10 μg/mL,sufficiently suppress

# From patent publication US9260466B2, “Use of a flavanol glycoside for suppressing activation of stellate cells” (Hong Kong Baptist University, priority 2013, dated 2016)
